Legend:
[1] = tested on: Pseudomonas aeruginosa PA14; experiment: Biofilm formation on polystyrene, crystal violet staining; type: cell-based
Protocol: Crystal violet staining Crystal violet staining was done as described previously (O'Toole et al., Mol. Microbiol. 30:295 (1998)) except that the cells were grown in 6-well plates. Wells were stained with 500 μl of 1.0% Crystal-violet dye, rinsed twice with 2 ml double-distilled water and thoroughly dried.
P. aeruginosa strain […] was grown in 12-well polystyrene plates for 48 hours at 30° C. in M63 medium containing glycerol (0.2%) and Casamino acids (20 μg/ml). Additionally added to the wells were no amino acids (untreated), D-tyrosine or the D-amino acid equimolar mixture. Cells bound to the polystyrene were visualized by washing away unbound cells and then staining with crystal violet. Wells were stained with 500 μl of 1.0% Crystal-violet dye, rinsed twice with 2 ml double-distilled water and thoroughly dried.
(§1) For experiments reported in Table 1, the organism/strain was S.a. Harvard SCO1, the culture medium was TSB and the cell inoculation was at 2×10^9 cfu. For experiments reported in Table 2, the organism/strain was […], the culture medium was M63 and the cell inoculation was at 1.5×10^9 cfu. Biofilm was visualized using the crystal violet method.

Bacillus subtilis = experiment: Disruption of existing 3 day-old pellicles; type: cell-based; settings: 3 μM added to 3 day-old cultures, further 8 hours
S. aureus (strain SCO1) = experiment: Biofilm formation on polystyrene, crystal violet staining; type: cell-based, Staphylococcus aureus
Protocol: Crystal violet staining Crystal violet staining was done as described previously (O'Toole et al., Mol. […] Wells were stained with 500 μl of 1.0% Crystal-violet dye, rinsed twice with 2 ml double-distilled water and thoroughly dried.
The effect of D-amino acids on biofilm formation by other bacteria was examined. The pathogenic bacterium Staphylococcus aureus forms biofilms on plastic surfaces (Otto, Curr. Top. Microbiol. Immunol. 322:207 (2008)), which can be detected by washing away unbound cells and staining the bound cells with crystal violet. […] Additionally added to the wells were no amino acids (untreated), D-tyrosine (50 μM) or the D-amino acid mixture ([…] each). Cells bound to the polystyrene were visualized by washing away unbound cells and then staining with crystal violet.
as §1, with “method. The data is shown below in Tables 1 and 2:” for “method.”
For experiments reported in Tables 3 and 4, the organism/strain was S.a. Harvard SCO1, the culture medium was TSB and the cell inoculation was at 2×10^9 cfu. Biofilm was visualized using the crystal violet method.

[2] = tested on: matrix operons eps and yqxM; experiment: Expression of PyqxM-lacZ and PepsA-lacZ (β-galactosidase activity); type: cell-based, Bacillus subtilis; settings: 3 μM, strains FC122 and FC5, MSgg, shaking
Protocol: Assays of β-galactosidase activity. Cells were cultured in MSgg medium at 37° C. in a water bath with shaking 1 ml of culture was collected at each time point. β-galactosidase activity was determined as described previously (Chai et al., Mol. Microbiol. 67:254 (2008)).

[3] = Staphylococcus aureus, 24 h, read-out: % Inhibition relative to control (0%, <50%, 50-90%, >90%)

N[C@H](Cc1ccc(O)cc1)C(=O)O [D-tyrosine]
Prevention of biofilm formation (FIG. 10) ([1]; 10 μM, strain P014, polystyrene, 48 hours at 30° C., M63 medium): effective in preventing biofilm formation | inhibition at 0.1 µM ([1]; Pseudomonas aeruginosa, PA14, Table 2, 100 nM, 48 h/30° C., polystyrene, M63, read-out: % Inhibition relative to control (0%, <50%, 50-90%, >90%)): 0% | inhibition at 10 µM ([1]; Pseudomonas aeruginosa, PA14, Table 2, 10 μM, 48 h/30° C., polystyrene, M63, read-out: % Inhibition relative to control (0%, <50%, 50-90%, >90%)): > 90% | inhibition at 100 µM ([1]; Pseudomonas aeruginosa, PA14, Table 2, 100 μM, 48 h/30° C., polystyrene, M63, read-out: % Inhibition relative to control (0%, <50%, 50-90%, >90%)): > 90% | inhibition at 500 µM ([1]; Pseudomonas aeruginosa, PA14, Table 2, 500 μM, 48 h/30° C., polystyrene, M63, read-out: % Inhibition relative to control (0%, <50%, 50-90%, >90%)): > 90% | Breakdown of existing pellicles (FIG. 2C) (Bacillus subtilis): conspicuous breakdown of pellicles | Prevention of biofilm formation (FIG. 2E) (S. aureus (strain SCO1); 50 μM, 12-well polystyrene, 24 hours at 37° C., TSB with glucose (0.5%) and NaCl (3%)): highly effective in preventing biofilm formation | inhibition at 0.1 µM (S. aureus (strain SCO1); [3]): 0% | inhibition at 10 µM (S. aureus (strain SCO1); [3]): 0% | inhibition at 100 µM (S. aureus (strain SCO1); [3]): > 90% | inhibition at 500 µM (S. aureus (strain SCO1); [3]): > 90% | yqxM and eps expression (FIG. 9A, 9B) [2]: substantially the same as the untreated sample

Reference: US20130059096A1, “METHODS AND COATINGS FOR TREATING BIOFILMS” (President and Fellows of Harvard College, priority 2010, published 2013)
